By EC50 is commonly meant the concentration needed to bring the measured effect to its halfway point.

Four compounds from article PMC5206802 (Journal of medicinal chemistry, 2016) can be followed below.

Common to all, as to assay type: cell-based
In data set [1] the test system is HIV-1 A17 (K103N and Y181C). Kind of data set: microbe, parasite or virus in culture. The following applies: Human immunodeficiency virus 1, MT2, read-out: EC50 A17.
A further data set relates to MT-2 cells.
In a further data set the test system is HIV-1 IIIB. Put plainly: HIV-1 infection assay using MT-2 cells. Conditions: Human immunodeficiency virus 1, IIIB, MT2, read-out: EC50 IIIB.
A further data set has as its system HIV-1 NL4-3. Kind of data set: Inhibition of HIV-1 infection of TZM-bl cells. Conditions: wild-type NL4-3.

As to `CC(=O)OCc1cc(N)c(Nc2ccc(C#N)cc2)cc1Oc1c(C)cc(CCC#N)cc1C` [Compound 6h, 4-Acetoxymethyl-5-[4″-(2-cyanoethyl)-2″,6″-dimethylphenoxy]-N^1-(4′-cyanophenyl)benzene-1,2-diamine], the EC50 in data set [1] was determined as 4.92 ± 0.12 nM; in the data set with HIV-1 IIIB, 0.96 ± 0.12 nM. The “SI (selective index) CC50/EC50(IIIB)” value with MT-2 cells is 46,667.

Consider `COC(=O)c1cc(N)c(Nc2ccc(C#N)cc2)cc1Oc1c(OC)cc(CCC#N)cc1OC` [Compound 13c, 5-[4″-(2-Cyanoethyl)-2″,6″-dimethoxyphenoxy]-N^1-(4′-cyanophenyl)-4-methoxycarbonylbenzene-1,2-diamine], for which the “fold less potent than the corresponding bromo/methoxy-DAANs (14c and 14d)” value in the data set with HIV-1 NL4-3 is listed as “at least 20 fold”.

As for `COCc1cc(N)c(Nc2ccc(C#N)cc2)cc1Oc1c(C)cc(CCC#N)cc1C` [Compound 6k, 5-[4″-(2-Cyanoethyl)-2″,6″-dimethylphenoxy]-N^1-(4′-cyanophenyl)-4-methoxymethylbenzene-1,2-diamine], the results for the EC50 (in data set [1]; in the data set on HIV-1 IIIB) were 2.95 ± 0.5 nM and 3.25 ± 0.23 nM, respectively. Moreover, in the data set on MT-2 cells, the “SI (selective index) CC50/EC50(IIIB)” value is >61,538.

As to `CNC(=O)c1cc(N)c(Nc2ccc(C#N)cc2)cc1Oc1c(OC)cc(CCC#N)cc1OC` [Compound 13d, 5-[4″-(2-Cyanoethyl)-2″,6″-dimethoxyphenoxy]-N^1-(4′-cyanophenyl)-4-methylcarbamoylbenzene-1,2-diamine], the “fold less potent than the corresponding bromo/methoxy-DAANs (14c and 14d)” value with HIV-1 NL4-3 is reported as “at least 20 fold”.
